# Measurements from patent US12491186B2, “EGFR inhibitors for treating keratodermas” (INSERM (Institut National de la Santé et de la Recherche …, priority 2018, dated 2025).
# Like-named read-outs stand apart in the source and are kept apart here.
# Tested on: OS patients
smiles,measurement,setting,value
C#Cc1cccc(Nc2ncnc3cc(OCCOC)c(OCCOC)cc23)c1.Cl [Erlotinib],overall clinical outcome,3 OS patients,dramatic improvement
same,pain outcome after three months,"OS patients on Erlotinib, after three months",total disappearance and spontaneous pain drug removal
same,only persistent side effect,"human, in vivo",moderate acne reaction
same,side effect leading to dose reduction,"human, in vivo",abdominal pain and nausea
same,keratoderma regression completed at day,"patient 2 (mild PPK), Erlotinib 50 mg",30 days
same,reduction of pain,"patient 3, Erlotinib started at 50 mg",later
same,reduction of pain,"patients 1 and 2, Erlotinib started at 100 mg (patient 2 reduced to 50 mg)",rapid reduction of pain was observed within days
same,keratoderma regression completed at day,patients 1 and 3 (severe PPK),90 days
